# Assays:
# HUVECs = experiment: RT-qPCR and Western blot of gene expression in HUVECs; type: cell-based, human; details: for H19 expression (RT-qPCR): overnight treatment vs vehicle
# Method: HUVECs (Lonza, CC-2517) were maintained in a growth medium composed of endothelial basal medium (EBM-2, CC-3156) supplemented with EGM-2 MV BulletKit (CC-4147, Lonza). Cells were used between passages P2-P5. For cytokine treatment, cells were incubated overnight with indicated concentrations of TNF-α, TNF-α plus IL-1β, or Hcy in endothelial basal medium. Cells were transfected in a 24-well plate scale. To prepare siRNA transfection solution for each well, 10 pmol of siCon, siH19, or siTET1 were mixed with 25 μl of OPTI-MEM by gentle pipetting. In parallel, 1 μl of Lipofectamine 3000 was mixed with 25 μl of OPTI-MEM. Following 5 min of incubation at RT, the two were mixed by gentle pipetting and incubated for 10 min at RT to allow siRNA/lipid complexes to form. At the end of incubation, the 50 μl of transfection solution was used to resuspend cell pellet (3×10^4 cells/well). After incubation at room temperature (RT) for 10 min, growth medium was added at a ratio of 1:9 (1 volume of transfection solution/9 volumes of growth medium) and the cell suspension was transferred to a culture plate. For cytokine treatment combined with H19 knockdown, cells were transfected with siCon or siH19 for 24 h, followed by addition of TNF-α at a final concentration of 10 ng/ml for an additional 24 h before RNA extraction. For iLet 7 rescue experiments, 10 pmol of siCon+iCon, iCon+siH19, or siH19+iLet7 were used for each well of 3×10^4 cells. Forty-eight hours after the transfection, RNA and protein were extracted for analysis.
# To prepare DNA/lipid complexes for pH19/pTET1 overexpression (FIG. 23) or pTET1 overexpression rescue (FIG. 22) experiments, empty vector (0.5 μg), pH19 ([…]), or pTET1 (0.75 μg) were mixed with 1 μl of P3000 in 25 μl of OPTI-MEM by gentle pipetting. In parallel, 0.75 μl of Lipofectamin 3000 was mixed with 25 μl of OPTI-MEM. The contents in the two tubes were mixed by gentle pipetting and incubated at RT for 5 min. The resulting DNA/lipid complexes (50 μl) were added to one well of cells (8×10^4) which had been seeded in a 24-well plate in growth medium the night before. Following incubation at RT for 10 min, 300 μl of OPTI-MEM was added and cells were incubated in a tissue culture incubator for 4-6 h. […]
# HUVECs in 24-well plates were dissociated with 0.25% trypsin. […] Bands on Western blot gels were quantified using ImageJ. […]
# Total RNAs were extracted using PureLink RNA Mini Kit (Ambion, catalog number 12183018A). cDNA was synthesized using PrimeScript RT Reagent Kit (TAKARA, RR037A) in a 20 μl reaction containing 0.5-1 μg of total RNA. Real-time quantitative PCR was performed in a 15 μl reaction containing 0.5-1 μl of cDNA using iQSYBRGreen (Bio-Rad) in a Bio-Rad iCycler. […]
# [1] = test system: primary human hepatocytes; experiment: qPCR of gene expression in primary human hepatocytes; type: cell-based; details: glucagon 20 nM vs vehicle
# Method: Mouse primary hepatocytes were prepared as previously described (Zhang N et al., 2018, JCI Insight 3:e120304). Cells were maintained in Williams' Medium (GIBCO, 12551) with 5% FBS, 1% 1 M HEPES buffer (GIBCO, 15630-080), 1% L-Glutamine (GIBCO, 25030-081), 1% SPA (GIBCO, 15240-062), 4 mg/L insulin (GIBCO, 12585-014) and 1 μM dexamethasone (Sigma, D4902). For TET3 overexpression experiments, freshly isolated mouse primary hepatocytes were seeded in 12-well collagen 1-coated plates (BD Biosciences Discovery Labware) at 4×10^5 cells/well and infected with Ad-GFP or Ad-TET3 at 4,000 gc/cell at 3 h after seeding. For TET3 or HNF4α P2 isoform knockdown experiments, cells seeded in 12-well plates were infected with AAV-scr, AAV-siTET3, or AAV-siP2 at 6,000 gc/cell at 3 h after seeding. Medium was changed the next day and glucagon was added at a final concentration of 20 nM. Glucose production assays were carried out at 60 h after infection. […]
# Total RNAs were extracted from liver or pancreas tissues or from primary hepatocytes using PureLink RNA Mini Kit. cDNA was synthesized using PrimeScript RT Reagent Kit in a 20 μl reaction containing 0.5-1 μg of total RNA. Real-time quantitative PCR was performed in a 15 μl reaction containing 0.5-1 μl of cDNA using iQSYBRGreen in a Bio-Rad iCycler. […]
# [2] = test system: Hnf4a P2 and P1 promoters; experiment: ChIP-qPCR and QMSP of Hnf4a promoters in mouse hepatocytes; type: cell-based
# Method: Genomic DNA was extracted from mouse primary hepatocytes grown in 12-well plates using Quick-gDNA MicroPrep (Zymo Research Corporation, D3021) according to the manufacturer's instructions. For bisulfite treatment, 480 ng of DNA was used for each column using EZ DNA Methylation-Gold Kit (Zymo, D5006). 100 μl of elution buffer was used to elute DNA from each column. Real-time quantitative PCR was performed in a 15 μl reaction containing 5 μl of the eluted DNA using iQSYBRGreen in a Bio-Rad iCycler. Two sets of PCR primers were designed: one for unmethylated and one for methylated DNA sequences. The PCR primers for methylated DNA were used at a final concentration of 0.6 μM in each PCR reaction. PCR was performed by initial denaturation at 95° C. for 5 min, followed by 40 cycles of 30 sec at 95° C., 30 sec at 60° C., and 30 sec at 72° C. Specificity was verified by melting curve analysis. The threshold cycle (Ct) values of each sample were used in the post-PCR data analysis. The ratio of methylated versus unmethylated DNA sequences are presented.
# Experiments were performed in a 12-well plate scale using the Pierce Agarose ChIP Kit (Thermo Scientific, 26156) according to the manufacturer's instructions with minor modifications. Briefly, agarose beads were used to pre-bind with antibodies (anti-TET3, anti-Ser-5(P)-RNAP, or pre-immune IgGs as negative controls) overnight at 4° C. The next day, hepatocytes were crosslinked with 1% formaldehyde at room temperature for 10 min, and the reaction was stopped by 1×glycine. ChIPs were carried out overnight at 4° C. Levels of ChIP-purified DNA were determined with qPCR (see Table 1 for primer sequences). The relative enrichments of the indicated DNA regions were calculated using the Percent Input Method according to the manufacturer's instructions and are presented as % input.
# [3] = test system: mouse primary hepatocytes; experiment: qPCR and immunoblotting of gene expression in mouse primary hepatocytes; type: cell-based
# Method: Mouse primary hepatocytes were prepared as previously described (Zhang N et al., 2018, JCI Insight 3:e120304). Cells were maintained in Williams' Medium (GIBCO, 12551) with 5% FBS, 1% 1 M HEPES buffer (GIBCO, 15630-080), 1% L-Glutamine (GIBCO, 25030-081), 1% SPA (GIBCO, 15240-062), 4 mg/L insulin (GIBCO, 12585-014) and 1 μM dexamethasone (Sigma, D4902). For TET3 overexpression experiments, freshly isolated mouse primary hepatocytes were seeded in 12-well collagen 1-coated plates (BD Biosciences Discovery Labware) at 4×10^5 cells/well and infected with Ad-GFP or Ad-TET3 at 4,000 gc/cell at 3 h after seeding. For TET3 or HNF4α P2 isoform knockdown experiments, cells seeded in 12-well plates were infected with AAV-scr, AAV-siTET3, or AAV-siP2 at 6,000 gc/cell at 3 h after seeding. Medium was changed the next day and glucagon was added at a final concentration of 20 nM. Glucose production assays were carried out at 60 h after infection. Human primary hepatocytes (M00995, Millipore, Sigma) were purchased, thawed, and maintained in InVitroGRO™ CP Medium (Sigma-Aldrich, Z990003) containing 2% Torpedo™ Antibiotic Mix. The cells were seeded in 12-well plates coated with collagen 1 (Millipore, 08-115). Infection of AAV-scr, AAV-sihTET3, and AAV-sihP2 were performed the next day after cell thawing and followed the same dosing protocol for the mouse primary hepatocytes.
# Total RNAs were extracted from liver or pancreas tissues or from primary hepatocytes using PureLink RNA Mini Kit. cDNA was synthesized using PrimeScript RT Reagent Kit in a 20 μl reaction containing 0.5-1 μg of total RNA. Real-time quantitative PCR was performed in a 15 μl reaction containing 0.5-1 μl of cDNA using iQSYBRGreen in a Bio-Rad iCycler. PCR was performed by initial denaturation at 95° C. for 5 min, followed by 40 cycles of 30 sec at 95° C., 30 sec at 60° C., and 30 sec at 72° C. Specificity was verified by melting curve analysis. The Ct values of each sample were used in the post-PCR data analysis. Gene expression levels were normalized against house-keeping genes GAPDH and RPLP0.
# Primary hepatocytes in 12-well plates were dissociated with 0.25% trypsin. After […] centrifugation at 1000 rpm for 5 min, supernatants were discarded and cell pallets were homogenized in 2×SDS-sample buffer (100 ul/well), followed by heating at 100° C. for 5 min, with occasional vortexing. For liver tissue samples, 5 mg of tissues were minced and 200 μl of 2× SDSsample buffer was added, followed by homogenization on ice using a sonicator (Qsonica, Q125-110). Homogenized samples were heated at 100° C. for 5 min and then centrifuged at 12,000 g for 5 min to remove insoluble materials before loading onto 12% SDS gels (5 μl/well), followed by Western blot analysis. Bands on Western blot gels were quantified using ImageJ. GAPDH was used as a loading control.
# [4] = test system: UtLM and ht-UtLM leiomyoma cells; experiment: RT-qPCR and Western blot of gene expression in leiomyoma cells; type: cell-based, human; details: ht-UtLM cells, 24 h, 10^−8M
# From the text: Antibodies for TET3 (GeneTex, GTX121453; used at a dilution of 1/500), TGFBR2 (Abcam, ab184948; used at a dilution of 1/1000), TSP1 (Abcam, ab85762; used at a dilution of 1/500), MED12 (Novus Biological, NB100-2357; used at a dilution of 1/500), HMGA2 (Proteintech, 20795-1-AP; used at a dilution of 1/500), GRAF1 (Cell Signaling, 8802; used at a dilution of 1/500), SPARC (Cell Signaling, 8725; used at a dilution of 1/500), COL3A1 (LS-Bio, LS-C159386; used at a dilution of 1/1000), COL4A1 (LS-Bio, LS-C100552; used at a dilution of 1/500), COL5A2 (Origene, TA809611; used at a dilution of 1/500) and GAPDH (Abcam, ab128915; used at a dilution of 1/10000) were purchased. Human H19 siRNA (siH19) and control siRNA (siCon) were previously described (Ghazal S et al., 2015, EMBO Mol Med 7:996-1003). siTET3 (Ambion, 4392420/s47239), estradiol ([…], Sigma), and progesterone ([…], Sigma) were purchased. Estradiol and progesterone were dissolved in DMSO and used at a final concentration of 10^-8M. ht-UtLM cells tested negative for mycoplasma contamination were maintained in MEM (Sigma, #M3024) supplemented with 20% fetal bovine serum, 1×MEM Vitamin Solution (Invitrogen #11120-052), 1×MEM Amino Acids Solution (Invitrogen, #11130-051), and 1×MEM Non-Essential Amino Acids (Invitrogen #11140-050). Primary UtLM-1 and UtLM-2 cells were maintained in DMEM (Gibco, #10567014) supplemented with 20% fetal bovine serum, and 1% penicillin/streptomycin, 1% amphotericin B. All cells were transfected in a 24-well plate scale. To prepare siRNA transfection solution for each well, 10 pmol (5 pmol for primary cells) of siCon, siH19, or siTET3 were mixed with 25 μl of OPTI-MEM by gentle pipetting. In parallel, 1 μl of Lipofectamine 3000 was mixed with 25 μl of OPTI-MEM. Following 5 min of incubation at room temperature, the two were mixed by gentle inverting and incubated for 10 min at room temperature to allow siRNA/lipid complexes to form. At the end of incubation, the 50 μl of transfection solution was used to re-suspend the cell pellet (3×10^4 cells). After incubation at room temperature for 10 min, growth medium was added at a ratio of 1:9 (1 volume of transfection solution/9 volumes of growth medium), and the cell suspension was transferred to a new culture dish. After overnight incubation in a tissue culture incubator, the medium was replaced with fresh growth medium. For iLet 7 rescue experiments, 10 pmol of siCon/siH19 and 10 pmol of iCon/iLet7 were used for each well of 3×10^4 cells. RNA, genomic DNA, and protein were extracted and analyzed at the indicated time points following transfection.
# [5] = glucagon-stimulated versus vehicle treated hepatocytes
molecule,measurement,setting,value
TNF-α,"expression of TET1, TGFBR2 and TSP1 (RT-qPCR)",HUVECs; TNF-α 10 ng/ml 24 h vs vehicle,"upregulated expression of TET1, TGFBR2 and TSP1"
same,H19 expression (RT-qPCR),HUVECs,stimulates H19 expression in a dose-dependent manner
glucagon,HNF4α expression from P2 and P1,[1],stimulated expression from P2 (but not P1)
same,expression of PCK1 and G6PC,[1],increased expression of PCK1 and G6PC
same,binding of TET3 to Hnf4a promoters (ChIP-qPCR),[2]; glucagon 20 nM 24 h vs vehicle,dramatically increased binding of TET3 to P2 but not P1
same,methylation of P2 (QMSP),[2]; glucagon 20 nM 24 h vs vehicle,significantly decreased methylation of P2
same,RNAP association with P1 (ChIP),[2]; [5],no change in RNAP association with P1
same,enrichment in RNAP at the P2 promoter (ChIP),[2]; [5],approximately 5 fold
same,HNF4α P2 usage (qPCR),"[3]; H19 KO hepatocytes, glucagon 20 nM 24 h",failed to do so
same,Tet3 expression (qPCR),"[3]; H19 KO primary hepatocytes, glucagon 20 nM 24 h",no longer stimulated Tet3 expression
same,Pck1 and G6pc expression (qPCR),"[3]; WT hepatocytes, glucagon 20 nM vs vehicle",increased expression of Pck1 and G6pc
same,HNF4α P2 and P1 isoform expression (qPCR),[3]; WT primary hepatocytes,increased P2 usage in WT hepatocytes
same,H19 and Tet3 expression (qPCR),"[3]; WT primary hepatocytes, glucagon 20 nM 24 h or AAV-H19 48 h without glucagon",readily induced
"IL-1β: Recombinant human IL-1β (R&D Systems, 201-LB), combined with TNF-α",H19 expression (RT-qPCR),HUVECs,additive effect
"N[C@@H](CCS)C(=O)O [Hcy, L-Homocysteine]",H19 expression (RT-qPCR),HUVECs,dose-dependently upregulates H19
CC(=O)[C@H]1CC[C@H]2[C@@H]3CCC4=CC(=O)CC[C@]4(C)[C@H]3CC[C@]12C [progesterone],H19 expression,[4],did not affect H19 expression

# — US20220160751A1, “METHODS OF TREATMENT OF DISEASES AND DISORDERS ASSOCIATED WITH INCREASED TET LEVEL, INCREASED H19 LEVEL, INCREASED LEVEL OF TGF SIGNALING, OR ANY COMBINATION THEREOF” (YALE UNIVERSITY, priority 2019, published 2022)
